For orientation: inhibition means the share of the control response that was lost under treatment. Low readings indicate a weak effect, high ones a strong effect.

T1 sequence (Q15661 31-275 limits assumed): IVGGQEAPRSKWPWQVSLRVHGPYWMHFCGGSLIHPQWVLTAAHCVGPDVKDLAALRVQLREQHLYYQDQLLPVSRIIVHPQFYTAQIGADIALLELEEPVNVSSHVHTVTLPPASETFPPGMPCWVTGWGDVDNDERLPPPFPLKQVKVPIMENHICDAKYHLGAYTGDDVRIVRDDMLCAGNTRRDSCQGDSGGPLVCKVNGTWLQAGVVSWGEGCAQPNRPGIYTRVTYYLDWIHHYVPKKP

The first assay addresses T1, Tryptase beta-1 (Homo sapiens, UniProt Q15661). The assay is described as follows: Inhibitory activity against human Tryptase beta 2 expressed in yeast cells at 5 uM. The assay is classed as cell-based.
Consider `Cc1c(Cl)nc(N[C@H]2CC[C@H](N)CC2)c(=O)n1CC(=O)Nc1cccc(N)c1`, for which the inhibition turned out to be 7%.
`Cc1c(Cl)nc(N[C@H]2CC[C@H](N)CC2)c(=O)n1CC(=O)NC1CCC(N)CC1` (some centres undefined) displayed an inhibition of 2%.
Same read-out and setting: then `Cc1c(Cl)nc(N[C@H]2CC[C@H](N)CC2)c(=O)n1CC(=O)Nc1ccc(CN)cc1`, with 16%; and `Cc1c(Cl)nc(N[C@H]2CC[C@H](N)CC2)c(=O)n1CC(=O)Nc1cccc(C(N)=O)c1`, with 18%; and `Cc1c(Cl)nc(N[C@H]2CC[C@H](N)CC2)c(=O)n1CC(=O)NCCc1c[nH]cn1`, with 8%.
Still for that read-out and setting: the same measure for `Cc1c(Cl)nc(N[C@H]2CC[C@H](N)CC2)c(=O)n1CC(=O)Nc1ccc(N)cc1`: 29%; for `Cc1c(Cl)nc(N[C@H]2CC[C@H](N)CC2)c(=O)n1CC(=O)Nc1ccc(C(N)=O)cc1`: 31%.

The next assay addresses T1, Tryptase beta-1. As to the kind of experiment: Inhibitory activity against human Tryptase beta 2 expressed in yeast cells at 5 uM; not active. The class given is cell-based.
Compound `Cc1c(Cl)nc(Nc2cccc(Cl)c2)c(=O)n1CC(=O)Nc1cccc(CN)c1` returned an inhibition of 11%.
Still for that read-out and setting: the same measure for `Cc1c(Cl)nc(Nc2ccc(F)cc2)c(=O)n1CC(=O)Nc1cccc(CN)c1`: 24%.

For the origin of these results see ChEMBL document CHEMBL1137861, “Novel pyrazinone inhibitors of mast cell tryptase: synthesis and SAR evaluation” (Bioorg Med Chem Lett, 2004).
